Reference: US20210369691A1, “METHODS AND COMPOSITIONS FOR IMPROVING BONE MARROW HEMATOPOIETIC FUNCTIONS” (Sun Yat-Sen University, priority 2018, published 2021)

Legend:
[1] = system: hematopoietic stem cells; assay: Hematopoietic stem cell number in bone marrow after 5FU injury with ABC294640 treatment; format: in vivo, mice; settings: vs solvent control
Protocol: In order to calculate the number of hematopoietic stem cells in mice, statistical quantification was performed for the number of hematopoietic stem cells using the molecular marker system Lin^−Sca1^+c-Kit^+CD150^+CD48^−, in combination with flow cytometry. Briefly, 2 million bone marrow cells were resuspended in 100 μl PBS, and 2 μl of a combination of anti-Lin, anti-Sca-1, anti-c-Kit, anti-CD150 and anti-CD48 was added. Samples were kept on ice for 1 h and washed with 1 ml of PBS, then resuspended with […] of PBS for flow cytometry analysis to determine the number of hematopoietic stem cells in the mouse bone marrow. T-test analysis was carried out using Graphpad6.0, and the difference was considered statistically significant when P<0.05. Twenty 8-week-old C57 mice (purchased from Laboratory Animal Center, Sun Yat-sen University) were injected intraperitoneally with 5FU at a dose of 150 mg/kg, respectively. After 5FU treatment, control mice (10 mice) were injected with a solvent control solution (1:1 physiological saline: PEG400) and the SphK2 inhibitor treatment mice (10 mice) were injected with the SphK2 inhibitor ABC294640. Briefly, 5FU was injected on day 1, and the inhibitor and solvent control solution were injected on day 2 and every other day, for five times in total. […] The SphK2 inhibitor ABC294640 was purchased from Selleck and dissolved in dimethyl sulfoxide (DMSO), it was then diluted with a mixture solution of polyethylene glycol 400 (PEG400) and physiological saline (1:1), and was injected to the mice with a dose of 10 mg/kg. T-test analysis was carried out using Graphpad6.0, and the differences were considered statistically significant when P<0.05.

[2] = system: white blood cells; assay: White blood cell recovery in peripheral blood after 5FU; format: in vivo, mice; settings: after 5FU 150 mg/kg once; ABC294640 10 mg/kg every other day; days 0, 1, 5, 11; vs solvent control; FIG. 5
Protocol: (§1) Preparation of the SphK2 inhibitor was as described in Example 4. Twelve 8-week-old C57 mice purchased from Laboratory Animal Center, Sun Yat-sen University were selected and divided evenly into two groups. The mice were intraperitoneally injected with 5FU at a dose of 150 mg/kg once. The injection of the inhibitor ABC294640 and the solvent control solution was as described in Example 4, which started from the day after 5-fluorouracil injection, followed by injections once every other day, at a dose of 10 mg/kg, until the end of the experiment. Periphery blood (PB) of each mouse was separately collected to determine white blood cell (WBC) counts 0, 1, 5 and 11 days after 5-FU administration. T-test analysis was carried out using Graphpad6.0, and differences were considered statistically significant when P<0.05.

[3] = system: platelets; assay: Platelet recovery in peripheral blood after 5FU; format: in vivo, mice; settings: after 5FU 150 mg/kg once; ABC294640 10 mg/kg every other day; days 0, 1, 5, 11; vs solvent control; FIG. 6
Protocol: as §1
(§2) The experiment was conducted as described in Example 5. Periphery blood (PB) of each mouse was separately collected to determine platelets (PLT) counts 0, 1, 5 and 11 days after 5-FU administration. T-test analysis was carried out using Graphpad6.0, and differences were considered statistically significant when P<0.05.

[4] = system: platelets; assay: Platelet recovery in peripheral blood after X-ray radiation; format: in vivo, mice; settings: after X-ray 450 cGy; ABC294640 10 mg/kg i.p. every other day; days 0, 1, 7, 14; vs solvent control; **P<0.01; FIG. 8
Protocol: Preparation of SphK2 inhibitors was as described in Example 4. Twelve 8-week-old C57 mice purchased from Laboratory Animal Center, Sun Yat-sen University were selected and divided evenly into two groups. The mice were treated with X-ray radiation at a dose of 450 cGy. The injection of the inhibitor ABC294640 and the solvent control solution was as described in Example 4. Intraperitoneal injection of the inhibitor or the solvent control solution started from the day after the X-ray radiation, followed by injections once every other day, at a dose of 10 mg/kg, until the end of the experiment. Periphery blood (PB) of each mouse was separately collected to determine white blood cell (WBC) counts 0, 1, 7 and 14 days after X-ray radiation. T-test analysis was carried out using Graphpad6.0, and differences were considered statistically significant when P<0.05.
as §2, with “Example 7.” for “Example 5.”, “1, 7” for “1, 5”, “and 14” for “and 11”, “after X-ray radiation.” for “after 5-FU administration.”

[5] = Survival after repeated high-dose 5FU chemotherapy; format: in vivo, mice; settings: 5FU 150 mg/kg every 7 days, two times; ABC294640 10 mg/kg every other day; vs control group; FIG. 9
Protocol: Preparation of SphK2 inhibitors was as described in Example 4. […] 8-week-old C57 mice purchased from Laboratory Animal Center, Sun Yat-sen University were selected and divided evenly into two groups. The mice were intraperitoneally injected with 5FU at a dose of 150 mg/kg, once every 7 days for two times in total. The inhibitor ABC294640 was injected starting from the day after 5FU injection, then injected once every other day, at a dose of 10 mg/kg, until the end of the experiment. Comparison of overall survival rates was performed using the Mantel_Cox log-rank test and differences were considered statistically significant when P<0.05.

[6] = system: hematopoietic stem cells; assay: Hematopoietic repopulation by transplantation of bone marrow cells from inhibitor-treated mice; format: in vivo
Protocol: To analyze whether Sphk2 deficient hematopoietic stem cells have increased hematopoietic function, 100 hematopoietic stem cells (Lin^−Sca-1^+c-Kit^+CD150^+CD48^−) from Sphk2 deficient mice or control donor mice were transplanted into irradiated wide-type recipients along with 2×10^5 CD45.1 bone marrow cells. Adult CD45.1 recipient mice were irradiated with an Orthovoltage X-ray source delivering approximately in two equal doses of 450 cGy at least 3 hours apart. Peripheral blood was collected from the tail vein every 4 weeks after the transplantation. Hematopoietic repopulation function was examined from donor-derived blood cells. To evaluate the hematopoietic function of the hematopoietic stem cells, 2×10^5 bone marrow cells from Sphk2 inhibitor or solvent control treated mice were transplanted into irradiated recipients (as described in Example 13). Peripheral blood was collected from the tail vein every 4 weeks after transplantation. The hematopoietic repopulation function was examined from donor-derived blood cells. The Sphk2 inhibitor was prepared as described in Example 4. Briefly, ABC294640 was purchased from Selleck and dissolved in dimethyl sulfoxide (DMSO), which was finally diluted with a mixture solution of polyethylene glycol 400 (PEG400) and physiological saline (1:1) to be administered at a dose of 10 mg/kg. […]

[7] = day 14 post 5FU treatment, FIG. 26

## O=C(NCc1ccncc1)C12CC3CC(C1)CC(c1ccc(Cl)cc1)(C3)C2 [ABC294640, 3-(4-chloro-phenyl)-adamantane-1-carboxylic acid (pyridin-4-ylmethyl)-amide]
[1]; after 5FU 150 mg/kg i.p., ABC294640 10 mg/kg every other day x5, day 12, **P<0.01, FIG. 4
  number of hematopoietic stem cells in bone marrow: increased significantly
[1]; [7]
  increase of CD150 HSC pool size: about 2.2 fold
  increase of LT-HSC pool size: about 2.2 fold
  increase of ST-HSC pool size: about 1.6 fold
[2]
  number of white blood cells from the peripheral blood: significantly increased
[3]
  number of platelets from the peripheral blood: significantly increased
[4]
  number of platelets in the peripheral blood: significantly increased
[5]
  survival period: significantly (***P<0.001) prolonged
[6]; 16 weeks after transplantation of 2x10^5 bone marrow cells from treated mice, FIG. 14 panel c
  increase of hematopoietic reconstitution level: 1.5 fold
[6]; recipients of bone marrow cells from inhibitor-treated mice, FIG. 14 panel d
  generation of multi-hematopoietic lineages in recipients: able to generate multi-hematopoietic lineages
